{"source": "patent US12233130B2", "about": "“Covalently-modified steroid acid-peptides having enhanced stability and/or biological activity” (DEFENCE THERAPEUTICS INC., priority 2022, dated 2025)", "test_system": "JIMT-1 breast cancer cells", "assay": "Cell cytotoxicity assay (PrestoBlue)", "format": "cell-based", "experimental": "50 mg of CDCA-C-SV40 monomers (or other steroid acid-peptide monomers) were resuspended in 200-500 μL of DMSO. 10 eq of N,N-Diisopropylethylamine (DIPEA) was added to the mixture and incubated in a thermomixer at 37° C. with agitation (1000 rpm) overnight, enabling dimerization of the monomers via their N-terminal cysteine thiol groups to produce (CDCA-C-SV40)2 or other dimers. The samples were then analyzed by UPLC-MS to evaluate dimer formation efficiency. Cell toxicity was evaluated via a Cell Toxicity assay (PrestoBlue™).\nIn a T75 flask of confluent JIMT-1 cells (at least 75%), the culture medium was removed, and 2 mL of trypsin was then added and incubated at 37° C. for about 5 minutes or until the cells detached. The trypsin was inactivated by adding 10 mL of culture medium, the cells were centrifuged at 950 rpm for 5 minutes at 4° C., viable cells were visualized with trypan blue and counted using a hematocytometer. Cells were then plated in a 96-well plate at 5000 cells/well and incubated at 37° C. for 24 hours. Trastuzumab-(CDCA-C-SV40)2 or T-DM1-(CDCA-C-SV40)2 was then added to the cells and incubated for 72 hours at 37° C. […] Fluorescence (excitation: 535-560 nm, emission: 590-615 nm) was measured. The cells were further incubated for another 30 minutes, and a second fluorescence reading was taken.", "note": "Positions of bridges follow the written chain, without caps; N, C: chain ends. Residues, ends and D or L forms follow the SMILES beside them. Chains are numbered I, II in the order given. *: point of attachment. Chenodeoxycholyl = C[C@H](CCC(=O)*)[C@H]1CC[C@H]2[C@@H]3[C@H](O)C[C@@H]4C[C@H](O)CC[C@]4(C)[C@H]3CC[C@]12C", "data": [{"smiles": "CC(C)[C@H](NC(=O)[C@H](CCCCN)NC(=O)CNC(=O)[C@H](Cc1ccc(O)cc1)NC(=O)CNC(=O)[C@H](CO)NC(=O)[C@H](CSSC[C@H](NC(=O)CC[C@@H](C)[C@H]1CC[C@H]2[C@@H]3[C@H](O)C[C@@H]4C[C@H](O)CC[C@]4(C)[C@H]3CC[C@]12C)C(=O)N[C@@H](CO)C(=O)NCC(=O)N[C@@H](Cc1ccc(O)cc1)C(=O)NCC(=O)N[C@@H](CCCCN)C(=O)N[C@H](C(=O)N[C@@H](CO)C(=O)N[C@@H](CCCNC(=N)N)C(=O)N[C@@H](CCCNC(=N)N)C(=O)NCC(=O)NCC(=O)N[C@@H](Cc1c[nH]cn1)C(=O)N[C@@H](CCC(N)=O)C(=O)N[C@@H](CC(N)=O)C(=O)N[C@@H](CO)C(=O)N[C@@H](Cc1ccc(O)cc1)C(=O)N[C@@H](CCCCN)C(=O)N1CCC[C@H]1C(=O)N[C@@H](Cc1ccc(O)cc1)C(=O)O)C(C)C)NC(=O)CC[C@@H](C)[C@H]1CC[C@H]2[C@@H]3[C@H](O)C[C@@H]4C[C@H](O)CC[C@]4(C)[C@H]3CC[C@]12C)C(=O)N[C@@H](CO)C(=O)N[C@@H](CCCNC(=N)N)C(=O)N[C@@H](CCCNC(=N)N)C(=O)NCC(=O)NCC(=O)N[C@@H](Cc1c[nH]cn1)C(=O)N[C@@H](CCC(N)=O)C(=O)N[C@@H](CC(N)=O)C(=O)N[C@@H](CO)C(=O)N[C@@H](Cc1ccc(O)cc1)C(=O)N[C@@H](CCCCN)C(=O)N1CCC[C@H]1C(=O)N[C@@H](Cc1ccc(O)cc1)C(=O)O", "note": "[(CDCA-C-hnRNP D NLS)2] (I: Chenodeoxycholyl-CSGYGKVSRRGGHQNSYKPY-OH / II: Chenodeoxycholyl-CSGYGKVSRRGGHQNSYKPY-OH; disulfide I:1-II:1)", "values": [{"measurement": "cytotoxicity of dimerized version vs monomer", "value": "enhancement of cytotoxicity"}]}]}
